# Assay results as given in US8802664B2 (Bioproject, priority 2010, dated 2014).
# Structures can show the parent of a compound that is named as a salt.
# Target: T1, human H4 receptor (Homo sapiens, UniProt Q9H3N8)
# T1 construct: expressed in transfected cells
# Assay: [3H]Histamine binding on membranes of CHO cells stably expressing human H4 receptor
# Conditions: not given
# Summary of the method: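 CHO-hH4 membranes 20 μg/well; buffer 50 mM Tris/HCl, 0.5 mM EDTA, pH 7.4; NSB: 10 μM JNJ 7777120 (BP1.2404); GF/B filtration (PEI-presoaked), 3 ice-cold washes; scintillation counting.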
row,Ki or IC50 activity class,Structure (SMILES)
1,< 30 nM,"Cc1ccc(C(OC2CCN(C)CC2)c2nc3ccccc3[nH]2)cc1 (single isomer, unassigned) [Example 253, 2-[(1-methylpiperidin-4-yloxy)-p-tolylmethyl]-1H-benzimidazole]"
2,< 300 nM,"CCCCCCc1cccc(C(NC2CCN(C)CC2)c2nc3ccccc3[nH]2)c1 (stereo not shown) [Example 76, [(1H-benzimidazol-2-yl)(3-hexylphenyl)methyl](1-methylpiperidin-4-yl)amine]"
3,< 1000 nM,CN1CCC(OC(c2cccc(C=CCN)c2)c2nc3ccccc3[nH]2)CC1 (stereo not shown) [Example 488]
4,< 1000 nM,"CN1CCC(OC(c2cccc(N3CCC(O)(C(F)(F)F)C3)c2)c2nc3ccccc3s2)CC1 (stereo not shown) [Example 460, 1-{3-[benzothiazol-2-yl(1-methylpiperidin-4-yloxy)methyl]phenyl}-3-trifluoromethylpyrrolidin-3-ol]"
5,< 300 nM,"CC(=O)NC(=N)NCCSc1cccc(C(OC2CCN(C)CC2)c2nc3ccccc3[nH]2)c1 (stereo not shown) [Example 401, N-acetyl-N′-(2-{3-[(1H-benzimidazol-2-yl)(1-methylpiperidin-4-yloxy)methyl]phenylsulfanyl}ethyl)guanidine]"
6,< 1000 nM,"COC(=O)CC1(CSc2cccc(C(OC3CCN(C)CC3)c3nc4ccccc4s3)c2)CC1 (stereo not shown) [Example 239, (1-{3-[benzothiazol-2-yl(1-methylpiperidin-4-yloxy)methyl]phenylsulfanylmethyl}-cyclopropyl)acetic acid methyl ester]"
7,< 1000 nM,"CCOC(=O)NCCCCC#Cc1cccc(C(OC2CCN(C)CC2)c2nc3ccccc3n2C)c1 (stereo not shown) [Example 549, ethyl (6-{3-[(1-methyl-1H-benzimidazol-2-yl)(1-methylpiperidin-4-yloxy)methyl]phenyl}hex-5-ynyl)carbamate]"
8,< 300 nM,"CN1CCC(OC(c2cccc(SC(C)(C)C)c2)c2nc3ccccc3[nH]2)CC1 (stereo not shown) [Example 215, 2-[(3-tert-butylsulfanylphenyl)(1-methylpiperidin-4-yloxy)methyl]-1H-benzimidazole]"
9,< 1000 nM,"CN1CCC(OC(c2cccc(OCCNCC(=O)OC(C)(C)C)c2)c2nc3ccccc3s2)CC1 (stereo not shown) [Example 370, (2-{3-[benzothiazol-2-yl(1-methylpiperidin-4-yloxy)methyl]phenoxy}ethylamino)acetic acid tert-butyl ester]"
10,< 30 nM,CN1CCC(OC(c2cccc(OC3CCC(N)C3)c2)c2nc3ccccc3s2)CC1 (stereo not shown) [Example 453]
11,< 30 nM,"CN1CCC(NC(c2cccc(SCc3ccccc3)c2)c2nc3ccccc3s2)CC1 (stereo not shown) [Example 107, [benzothiazol-2-yl(3-benzylsulfanylphenyl)methyl](1-methylpiperidin-4-yl)amine]"

# The next lines start with the compound.
row,Structure (SMILES),Ki or IC50 activity class
1,"CC(=O)c1ccc(-c2cccc(C(OC3CCN(C)CC3)c3nc4ccccc4[nH]3)c2)cc1 (stereo not shown) [Example 108, 1-{3′-[(1H-benzimidazol-2-yl)(1-methylpiperidin-4-yloxy)methyl]biphenyl-4-yl}ethanone]",< 300 nM
2,"CN1CCC(OC(c2nc3ccccc3[nH]2)c2ccccc2O)CC1 (single isomer, unassigned) [Example 627, 2-[(1H-benzimidazol-2-yl)(1-methylpiperidin-4-yloxy)methyl]phenol]",< 30 nM
3,"CN1CCC(OC(c2cccc(SCCNC3=NCCN3)c2)c2nc3ccccc3[nH]2)CC1 (stereo not shown) [Example 317, (2-{3-[(1H-benzimidazol-2-yl)(1-methylpiperidin-4-yloxy)methyl]-phenylsulfanyl}ethyl)(4,5-dihydro-1H-imidazol-2-yl)amine]",< 1000 nM
4,"CN1CCC(OC(c2cccc(C#CCCCn3nccn3)c2)c2nc3ccccc3[nH]2)CC1 (stereo not shown) [Example 416, 2-{(1-methylpiperidin-4-yloxy)[3-(5-[1,2,3]triazol-2-yl-pent-1-ynyl)phenyl]methyl}-1H-benzimidazole]",< 300 nM
5,"CN1CCC(OC(c2cccc(I)c2)c2nc3ccccc3s2)CC1 (stereo not shown) [Example 41, 2-[(3-iodophenyl)(1-methylpiperidin-4-yloxy)methyl]benzothiazole]",< 30 nM
6,"CN1CCC(OC(c2cccc(-c3ccc(F)cc3)c2)c2nc3ccccc3s2)CC1 (stereo not shown) [Example 136, 2-[(4′-fluorobiphenyl-3-yl)(1-methylpiperidin-4-yloxy)methyl]benzothiazole]",< 300 nM
7,"CC1=C(O)C(=NCCCCC#Cc2ccc(F)c(C(OC3CCN(C)CC3)c3nc4ccccc4[nH]3)c2)CC1 (stereo not shown) [Example 563, 5-(6-{3-[(1H-benzimidazol-2-yl)(1-methylpiperidin-4-yloxy)methyl]-4-fluorophenyl}hex-5-ynylimino)-2-methylcyclopent-1-enol]",< 300 nM
8,"CN1CCC(OC(c2cccc(SCC3(CCO)CC3)c2)c2nc3ccccc3s2)CC1 (stereo not shown) [Example 268, 2-(1-{3-[benzothiazol-2-yl(1-methylpiperidin-4-yloxy)methyl]phenylsulfanylmethyl}cyclopropyl)ethanol]",< 300 nM
9,"CC(=O)NC1CCN(c2cccc(C(OC3CCN(C)CC3)c3nc4ccccc4s3)c2)C1 (stereo not shown) [Example 408, N-(1-{3-[benzothiazol-2-yl(1-methylpiperidin-4-yloxy)methyl]phenyl}pyrrolidin-3-yl)acetamide]",< 300 nM
10,"CN1CCC(OC(c2cccc(SCCCCO)c2)c2nc3ccccc3s2)CC1 (stereo not shown) [Example 256, 4-{3-[benzothiazol-2-yl(1-methylpiperidin-4-yloxy)methyl]phenylsulfanyl}butan-1-ol]",< 30 nM
11,CCOCCn1c(C(OC2CCN(C)CC2)c2cccc(C#CCCCCN)c2)nc2ccccc21 (stereo not shown) [Example 500],< 300 nM
12,CNC1CCN(c2cccc(C(OC3CCN(C)CC3)c3nc4ccccc4s3)c2)C1 (stereo not shown) [Example 483],< 300 nM
13,"CNC(=O)CSc1cccc(C(OC2CCN(C)CC2)c2nc3ccccc3s2)c1 (stereo not shown) [Example 259, 2-{3-[benzothiazol-2-yl(1-methylpiperidin-4-yloxy)methyl]phenylsulfanyl}-N-methylacetamide]",< 300 nM
14,"CN1CCC(NC(c2cccc(OCCC3=CCC4CC3C4(C)C)c2)c2nc3ccccc3[nH]2)CC1 (stereo not shown) [Example 181, ((1H-benzimidazol-2-yl)-{3-[2-(6,6-dimethyl-bicyclo[3.1.1]hept-2-en-2-yl)ethoxy]phenyl}methyl)(1-methylpiperidin-4-yl)amine]",< 30 nM
15,"CN1CCC(OC(c2cccc(OCCC(F)(F)F)c2)c2nc3ccccc3s2)CC1 (stereo not shown) [Example 178, 2-{(1-methylpiperidin-4-yloxy)[3-(3,3,3-trifluoro-propoxy)phenyl]methyl}benzothiazole]",< 300 nM
16,"CCCCc1cccc(C(OC2CCN(C)CC2)c2nc3ccccc3s2)c1 (stereo not shown) [Example 80, 2-[(3-butylphenyl)(1-methylpiperidin-4-yloxy)methyl]benzothiazole]",< 300 nM
17,"C=CCOc1cccc(C(OC2CCN(C)CC2)c2nc3ccccc3s2)c1 (stereo not shown) [Example 22, 2-[(3-allyloxyphenyl)(1-methylpiperidin-4-yloxy)methyl]benzothiazole]",< 30 nM

# Same assay, conditions: read-out: Activity (Ki or IC50)
row,Structure (SMILES),Ki
1,CN1CCC(OC(c2cccc(SCC3(CCO)CC3)c2)c2nc3ccccc3[nH]2)CC1 (stereo not shown) [Example 257],< 1000 nM

# Tested on: not given
# Assay: not given
# Conditions: not given
row,melting point,Structure (SMILES)
1,121 °C,"Cc1ccccc1COc1cccc(C(NC2CCN(C)CC2)c2nc3ccccc3[nH]2)c1 (stereo not shown) (as salt: oxalate) [Example 129, {(1H-benzimidazol-2-yl)[3-(2-methylbenzyloxy)phenyl]methyl}(1-methylpiperidin-4-yl)amine]"
2,127 °C,"Cc1cccc(C(NC2CCN(C)CC2)c2nc3ccccc3s2)c1 (stereo not shown) (as salt: oxalate) [Example 21, [(benzothiazol-2-yl)(m-tolyl)methyl](1-methylpiperidin-4-yl)amine]"
3,99 °C,"CN1CCC(OC(c2cccc(SCCCN)c2)c2nc3ccccc3s2)CC1 (stereo not shown) (as salt: oxalate) [Example 314, 3-{3-[benzothiazol-2-yl(1-methylpiperidin-4-yloxy)methyl]phenylsulfanyl}propylamine]"

# Further lines, the compound ahead of its results:
row,Structure (SMILES),melting point
1,CNC1CCN(c2cccc(C(OC3CCN(C)CC3)c3nc4ccccc4s3)c2)C1 (stereo not shown) (as salt: oxalate) [Example 483],115 °C
2,"CN1CCC(COC(c2cccc(Br)c2)c2nc3ccccc3s2)C1 (single isomer, unassigned) (as salt: oxalate) [Example 464]",68 °C
3,"CN1CCC(OC(c2cccc(C#CCCCNC(=N)N)c2)c2nc3ccccc3s2)CC1 (stereo not shown) (as salt: hydrochloride) [Example 340, N-(5-{3-[benzothiazol-2-yl(1-methylpiperidin-4-yloxy)methyl]phenyl}pent-4-ynyl)guanidine]",180 °C
4,"CCOc1cccc(C(OC2CCN(C)CC2)c2nc3ccccc3s2)c1 (stereo not shown) (as salt: oxalate) [Example 47, 2-[(3-ethoxyphenyl)(1-methylpiperidin-4-yloxy)methyl]benzothiazole]",84 °C
5,"CN1CCC(OC(c2cccc(C#N)c2)c2nc3ccccc3s2)CC1 (stereo not shown) (as salt: oxalate) [Example 197, 3-[benzothiazol-2-yl(1-methylpiperidin-4-yloxy)methyl]benzonitrile]",75 °C
6,"CN1CCC(OC(c2cccc(N3CCC(CO)C3)c2)c2nc3ccccc3s2)CC1 (stereo not shown) (as salt: oxalate) [Example 404, (1-{3-[benzothiazol-2-yl(1-methylpiperidin-4-yloxy)methyl]phenyl}pyrrolidin-3-yl)methanol]",106 °C
7,"CN1CCC(OC(c2cc(F)cc(F)c2)c2nc3ccccc3s2)CC1 (stereo not shown) (as salt: oxalate) [Example 15, 2-[(3,5-difluorophenyl)(1-methyl-piperidin-4-yloxy)methyl]benzothiazole]",165 °C
8,"COc1cc(F)cc(C(NC2CCN(C)CC2)c2nc3ccccc3s2)c1 (stereo not shown) (as salt: oxalate) [Example 43, [benzothiazol-2-yl(3-fluoro-5-methoxyphenyl)methyl](1-methylpiperidin-4-yl)amine]",157 °C
